Reference: patent publication US20250002512A1, “NOVEL ANTI-[…] NE[…] AND THERAPEUTIC USES THEREOF” (MARVEL BIOTECHNOLOGY, priority 2021, published 2025)

Assays:
male CD-1 mice = assay: forced swim test (FST), preclinical model of depression; assay type: in vivo; details: n=8/group, 50 mgs/kg orally once a day for seven days, FST on seventh day; for immobilization time (2-6 minutes): compared with fluoxetine 30 mg/kg, one-way ANOVA, Fisher LSD, FIG. 1; for latency to immobility: compared with vehicle control, FIG. 2
Method: The forced swim test (FST) is a widely accepted pre-clinical model to test the anti-depressive effects of molecules (Can A, Dao D T, Arad M, Terrillion C E, Piantadosi S C, Gould T D. The Mouse Forced Swim Test. J Vis Exp. 2012; (59): 3638. doi: 10.3791/3638).
Briefly, male CD-1 mice (approximately 25-35 g, n=8/group) were dosed orally once a day with either vehicle (2% aqueous DMSO, 0.5% carboxymethyl cellulose), compound 1 (50 mgs/kg in vehicle), compound 2 (50 mgs/kg in vehicle) or fluoxetine (aka. Prozac®, 30 mg/kg in vehicle) for seven days. Seven days is a comparatively short time to observe an anti-depressant effect with an orally dosed drug. On the seventh day, animals were tested in the FST and observed for abnormal behaviours (e.g. hallucinating).

[1] = molecular target: brain derived neurotrophic factor (BDNF) receptor TrkB (Homo sapiens, UniProt Q16620); details: cited from Shen J et al.; cited from earlier work
brain derived neurotrophic factor (BDNF) receptor TrkB, sequence (Q16620 32-822): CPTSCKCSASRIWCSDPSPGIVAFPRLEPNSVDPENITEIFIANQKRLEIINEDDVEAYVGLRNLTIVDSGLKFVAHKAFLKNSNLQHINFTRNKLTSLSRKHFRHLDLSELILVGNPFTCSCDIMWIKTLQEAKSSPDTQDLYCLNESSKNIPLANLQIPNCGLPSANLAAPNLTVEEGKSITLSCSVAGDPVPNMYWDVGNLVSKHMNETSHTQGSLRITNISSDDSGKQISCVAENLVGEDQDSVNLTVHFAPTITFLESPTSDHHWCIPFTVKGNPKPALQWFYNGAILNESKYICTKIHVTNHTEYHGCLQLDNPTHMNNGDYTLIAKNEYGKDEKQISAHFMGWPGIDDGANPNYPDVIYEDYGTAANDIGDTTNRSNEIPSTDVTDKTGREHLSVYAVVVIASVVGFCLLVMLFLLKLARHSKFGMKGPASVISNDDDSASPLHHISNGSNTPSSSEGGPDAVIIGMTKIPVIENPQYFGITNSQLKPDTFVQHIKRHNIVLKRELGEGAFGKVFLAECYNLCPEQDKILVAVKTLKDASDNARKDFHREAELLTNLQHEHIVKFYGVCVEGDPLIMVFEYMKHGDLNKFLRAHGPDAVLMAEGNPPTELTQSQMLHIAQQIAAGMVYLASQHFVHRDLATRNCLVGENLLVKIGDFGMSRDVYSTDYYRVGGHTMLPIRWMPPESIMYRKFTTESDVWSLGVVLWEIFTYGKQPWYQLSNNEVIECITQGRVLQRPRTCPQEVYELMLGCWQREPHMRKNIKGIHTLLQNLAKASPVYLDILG

Compound: O=C1NCCCC1C(=O)NCCc1c[nH]c2ccc(OP(=O)(O)O)cc12 (centres unmarked) [Compound 1, N-{2-[5-(Dihydroxyphosphoryloxy)-1H-indol-3-yl]ethyl}-2-oxo-3-piperidinecarboxamide]
- immobilization time (2-6 minutes) (male CD-1 mice): significantly better than fluoxetine
- latency to immobility (male CD-1 mice): better than vehicle control

Compound: O=C(CN1CCCC1=O)NCCc1c[nH]c2ccc(OP(=O)(O)O)cc12 [Compound 2, N-{2-[5-(dihydroxyphosphoryloxy)-1H-indol-3-yl]ethyl}(2-oxo-1-pyrrolidinyl) acetamide]
- immobilization time (2-6 minutes) (male CD-1 mice): significantly better than fluoxetine
- latency to immobility (male CD-1 mice): better than vehicle control

Compound: N-[2-(5-hydroxy-1H-indol-3-yl)ethyl]-2-oxopiperidine-3-carboxyamide [HIOC]
- activation of BDNF receptor TrkB [1]: activate
